Data published in US8044089B2, “3-3-di-substituted-oxindoles as inhibitors of translation initiation” (President and Fellows of Harvard College, priority 2004, dated 2011).

Tests used:
eIF2α = eIF2α phosphorylation measured by Western blot; format: cell-based; details: for eIF2α-P (phosphorylation of eIF2α measured by Western blot): unit or reference not given
From the text: (§1) As a non-limiting example, compounds 1272 and 1273 (set forth in Table 1) were synthesized starting from 3-bromoaniline, which upon condensation with hydroxylamine and chloral hydrate followed by concentrated sulfuric acid yielded an inseparable regioisomeric mixture of 4- and 6-bromo isatins. The addition of the two phenyl groups to the three position of the oxindole allowed easy chromatographic separation of the 4- and 6-bromo-3,3-diphenyloxindoles 1272 and 1273. Table 1 sets forth biological data for diaryloxindole compounds including, but not limited to 1272 and 1273. For Tables 1-14, Ca^2+ refers to Ca^2+ release from intracellular stores where a “+” denotes release and a “+/−” denotes inconclusive; eIF2α-P refers to phosphorylation of eIF2α measured by Western blot; SRB refers to the inhibitory concentration to reduce cell growth by 50% (IC50) for growth inhibition of A549 lung cancer cells; and n.d. is not determined.
(§2) Without intending to be bound by theory, the mechanism of action of translation initiation inhibitors is set forth in FIG. 1, and includes the depletion (complete or partial depletion) of intracellular calcium (Ca^2+) stores and phosphorylation of eIF2α. Compounds synthesized using the approaches described herein were screened for their ability to partially deplete intracellular Ca^2+ stores using FURA-2AM loaded cells (Benzaquen et al. (1995) Nature Medicine, 1:534, incorporated herein by reference in its entirety for all purposes). A limited subset of compounds were further screened for their ability to deplete endoplasmic reticulum (ER) Ca^2+. The Ca^2+ content of the ER was monitored using ER-targeted, Ca^2+ sensitive, recombinant proteins. These recombinant proteins emitted light by fluorescent resonance energy transfer (FRET) as a function of the Ca^2+ content of the medium. Such assays are previously described (Miyawaki, A.; Mizuno, H.; Llopis, J.; Tsien, R. Y.; Jalink, K. Cameleons as cytosolic and intra-organellar calcium probes, Oxford University Press: Oxford, London, 2001; pp 3-16, incorporated herein by reference in its entirety for all purposes). Compounds that depleted Ca^2+ were further evaluated for their ability to phosphorylate eIF2α. eIF2α phosphorylation was measured by Western blot analysis using the phospho-specific anti-eIF2α antibody, as previously described (Aktas et al. (1998) Proc. Natl. Acad. Sci. USA, 95:8280, incorporated herein by reference in its entirety for all purposes).

A549 lung cancer cells = assay: SRB growth inhibition of A549 lung cancer cells; format: cell-based, human; details: for IC50: A549 lung cancer cells, unit inferred, read-out: SRB (IC50 for growth inhibition of A549 lung cancer cells)
From the text: As a non-limiting example, compounds 1272 and 1273 (set forth in Table 1) were synthesized starting from 3-bromoaniline, which upon condensation with hydroxylamine and chloral hydrate followed by concentrated sulfuric acid yielded an inseparable regioisomeric mixture of 4- and 6-bromo isatins. The addition of the two phenyl groups to the three position of the oxindole allowed easy chromatographic separation of the 4- and 6-bromo-3,3-diphenyloxindoles 1272 and 1273. Table 1 sets forth biological data for diaryloxindole compounds including, but not limited to 1272 and 1273. For Tables 1-14, Ca^2+ refers to Ca^2+ release from intracellular stores where a “+” denotes release and a “+/−” denotes inconclusive; eIF2α-P refers to phosphorylation of eIF2α measured by Western blot; SRB refers to the inhibitory concentration to reduce cell growth by 50% (IC50) for growth inhibition of A549 lung cancer cells; and n.d. is not determined. […]

[1] = tested on: intracellular Ca^2+ stores; assay: Ca2+ release from intracellular stores (FURA-2AM loaded cells); format: cell-based; parameters: key to Ca^2+ (Ca^2+ release from intracellular stores): a “+” denotes release; a “+/−” denotes inconclusive
From the text: as §1, §2

Row | IC50 (A549 lung cancer cells) [µM] | SMILES | eIF2α-P (phosphorylation of eIF2α measured by Western blot) (eIF2α) | Ca^2+ (Ca^2+ release from intracellular stores) [1] | eIF2α phosphorylation (in words) (eIF2α) | growth inhibition of cancer cells (in words) (A549 lung cancer cells; A549)
1 | 3 | CC(C)(C)c1ccc(O)c(C2(c3c(F)c(F)c(F)c(F)c3F)C(=O)Nc3ccccc32)c1 (stereo not shown) [Compound 1328] | – | + | – | –
2 | 3 | CC(C)(C)c1ccc(O)c(C2(c3ccccc3)C(=O)Nc3ccc(N=[N+]=[N-])cc32)c1 (stereo not shown) [Compound 1348] | – | + | – | –
3 | > 20 | O=C(O)c1cccc2c1NC(=O)C2(c1ccccc1)c1ccccc1 [Compound 1353] | 1.54 | – | – | –
4 | 3 | Cc1cc(C2(c3ccccc3)C(=O)Nc3ccccc32)c(NC(=O)OCC2c3ccccc3-c3ccccc32)cc1O (stereo not shown) [Compound 1395] | 1.84 | – | – | –
5 | 14 | O=C1Nc2c(CO)ccc(Cl)c2C1(c1ccccc1)c1ccccc1 [Compound 1398] | 1.48 | – | reduced eIF2α phosphorylation relative to compound 1392 | reduced potency of tumor cell growth inhibition
6 | 3 | CC(C)(C)c1ccc(O)c(C2(c3ccccc3)C(=O)Nc3cc(Cl)ccc32)c1 (stereo not shown) [Compound 1429] | – | + | – | –
7 | 4 | CC(=O)Nc1ccc(S(=O)(=O)Nc2cc(O)c(C)cc2C2(c3ccccc3)C(=O)Nc3ccccc32)cc1 (stereo not shown) [Compound 1512] | 1.01 | – | – | –
8 | 4 | Cc1cc(C2(c3ccccc3)C(=O)Nc3ccccc32)c(NS(=O)(=O)c2ccc(-c3ccccc3)cc2)cc1O (stereo not shown) [Compound 1593] | 2.22 | – | – | –
9 | 5 | Cc1cc(C2(c3ccccc3)C(=O)Nc3ccccc32)c(NS(=O)(=O)c2ccc(Oc3ccccc3)cc2)cc1O (stereo not shown) [Compound 1594] | 3.73 | – | – | –
10 | < 1 | CC(C)(C)c1ccc(S(=O)(=O)Nc2cc(O)ccc2C2(c3ccccc3)C(=O)Nc3ccccc32)cc1 (stereo not shown) [Compound 1623] | – | + | – | –

Continued, compound first:

Row | SMILES | IC50 (A549 lung cancer cells) [µM] | eIF2α-P (phosphorylation of eIF2α measured by Western blot) (eIF2α) | Ca^2+ (Ca^2+ release from intracellular stores) [1] | eIF2α phosphorylation (in words) (eIF2α) | growth inhibition of cancer cells (in words) (A549 lung cancer cells; A549)
11 | CCCCCCCCc1ccc(O)c(C2(c3ccccc3)C(=O)Nc3ccccc32)c1 (stereo not shown) [Compound 1284] | 3 | 2.91 | – | – | –
12 | COc1ccc(C2(c3ccccc3)C(=O)Nc3ccccc32)cc1 (stereo not shown) [Compound 1294] | 10 | 1.52 | – | – | –
13 | CC(C)(C)OC(=O)NCCOc1ccc(C(C)(C)C)cc1C1(c2ccccc2)C(=O)Nc2ccccc21 (stereo not shown) [Compound 1329] | 3 | 0.89 | – | – | –
14 | CC(C)(C)c1ccc(OC(=O)CCCC(=O)O)c(C2(c3ccccc3)C(=O)Nc3ccccc32)c1 (stereo not shown) [Compound 1396] | 7 | 1.72 | – | – | –
15 | Cc1cc(C2(c3ccccc3)C(=O)Nc3ccccc32)c(NS(C)(=O)=O)cc1O (stereo not shown) [Compound 1427] | 14 | – | + | – | –
16 | CC(C)(C)c1ccc(O)c(C2(c3ccccc3)C(=O)Nc3cccc(Cl)c32)c1 (stereo not shown) [Compound 1428] | 3 | – | + | – | –
17 | Cc1cc(C2(c3ccccc3)C(=O)Nc3ccccc32)c(NC(=O)c2ccc(C(C)(C)C)cc2)cc1O (stereo not shown) [Compound 1493] | 3 | 2.06 | – | – | –
18 | CC(C)(C)c1ccc(S(=O)(=O)Nc2ccc(C3(c4ccccc4)C(=O)Nc4ccccc43)c(O)c2)cc1 (stereo not shown) [Compound 1624] | < 1 | – | + | – | –
19 | CC(C)(C)c1ccc(S(=O)(=O)Nc2ccc(O)c(C3(c4ccccc4)C(=O)Nc4ccccc43)c2)cc1 (stereo not shown) [Compound 1638] | 3 | – | + | – | –
